In paper PMC4671058, “Heterologous expression of newly identified galectin-8 from sea urchin embryos produces recombinant protein with lactose binding specificity and anti-adhesive activity” (Scientific Reports, 2015):

Biological target: T1, Pl-GAL-8 (Paracentrotus lividus, UniProt A0A0U5C3R9)
T1 construct: gene galectin-8; tags kept; expressed in E. coli BL21(DE3)
T1 sequence (A0A0U5C3R9 1-311): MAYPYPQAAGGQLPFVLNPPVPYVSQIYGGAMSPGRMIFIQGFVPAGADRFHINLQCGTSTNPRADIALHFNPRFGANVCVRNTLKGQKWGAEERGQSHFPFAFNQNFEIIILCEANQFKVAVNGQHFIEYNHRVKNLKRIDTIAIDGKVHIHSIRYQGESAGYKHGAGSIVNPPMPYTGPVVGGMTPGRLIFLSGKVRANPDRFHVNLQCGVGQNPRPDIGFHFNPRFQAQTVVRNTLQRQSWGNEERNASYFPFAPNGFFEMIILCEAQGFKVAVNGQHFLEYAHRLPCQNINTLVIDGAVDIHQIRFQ
Test: inhibition of hemagglutination of human red blood cells
Format: cell-based
Settings: 0.25 uM protein; PBS, room temperature, 40 min; lowest dose tested (1-20 mM)

`OC[C@H]1O[C@@H](O[C@H]2[C@H](O)[C@@H](O)C(O)O[C@@H]2CO)[C@H](O)[C@@H](O)[C@H]1O` (stereo partly shown) [lactose] showed an effective inhibitory concentration of 1 mM.
